Results as given in ChEMBL document CHEMBL5584353, “Design, Synthesis, and Biological Evaluation of Potent EZH2/LSD1 Dual Inhibitors for Prostate Cancer” (J Med Chem, 2024).
Calls of active or inactive are those of the source. The rule behind the calls is not given here.

Assays:
[1] = test system: PC-3; test: Induction of cell cycle arrest in human PC-3 cells assessed as accumulation of cells at G0/G1 phase incubated for 72 hrs by propidium iodide/RNase staining based flow cytometric analysis; assay type: functional
[2] = Metabolic stability in Sprague-Dawley rat hepatocyte assessed as half life at 20 uM incubated for 60 mins by HPLC-MS/MS analysis; assay type: ADME, cell-based; conditions: hepatocytes
[3] = test system: PC-3; test: Growth inhibition of human PC-3 cells incubated for 6 to 7 days by MTS assay; assay type: functional; conditions: time 6-7 day
[4] = Metabolic stability in Sprague-Dawley rat hepatocyte assessed as compound remaining at 20 uM incubated for 60 mins by HPLC-MS/MS analysis; assay type: ADME, cell-based; conditions: hepatocytes, read-out: Stability
[5] = Toxicity in BALB/c mouse xenografted with human 22Rv1 cells assessed as spleen morphological change at 80 mg/kg,ip administrated daily for 31 days; assay type: organism-based, CWR22R; conditions: in vivo, 744 h, time 31 day
[6] = Oral bioavailability in BALB/c mouse at 50 mg/kg measured upto 24 hrs by HPLC-MS/MS analysis; assay type: ADME, organism-based; conditions: in vivo
[7] = molecular target: T1, Lysine-specific histone demethylase 1A (Homo sapiens, UniProt O60341); test: Inhibition of LSD1 in human LNCaP cells assessed as upregulation of H3K4me2 expression at 1 to 5 uM incubated for 5 days by Western blotting analysis; assay type: cell-based; conditions: dose 1-5 µM, time 5.0 day
[8] = Half life in BALB/c mouse at 50 mg/kg,po measured upto 24 hrs by HPLC-MS/MS analysis; assay type: ADME, organism-based; conditions: in vivo
[9] = Metabolic stability in Sprague-Dawley rat hepatocyte assessed as compound remaining at 20 uM incubated for 120 mins by HPLC-MS/MS analysis; assay type: ADME, cell-based; conditions: hepatocytes, read-out: Stability
[10] = test system: CWR22R; test: Synergistic antitumor activity against human 22Rv1 cells xenografted in BALB/c mouse assessed as reduction in tumor growth at 80 mg/kg,ip administrated daily for 31 days in presence of enzalutamide relative to control; assay type: functional, organism-based; conditions: time 31.0 day
[11] = Clearance in BALB/c mouse at 50 mg/kg,ip measured upto 24 hrs by HPLC-MS/MS analysis; assay type: ADME, organism-based; conditions: in vivo
[12] = test system: LNCaP; test: Antimigratory activity in human LNCaP cells assessed as downregulation of N-cadherin expression at 3 to 10 uM incubated for 48 hrs by Western blotting analysis; assay type: functional, cell-based; conditions: dose 3-10 µM
[13] = test system: CWR22R; test: Antitumor activity against human 22Rv1 cells xenografted in BALB/c mouse assessed as reduction in Ki67 expression at 80 mg/kg,ip administrated daily for 31 days by immunofluorescence analysis; assay type: functional, organism-based; conditions: time 31.0 day
[14] = test system: CWR22R; conditions: Homo sapiens, dose 80.0 mg/kg, route ip, time 31.0 day
[15] = molecular target: T1, Lysine-specific histone demethylase 1A; test: Inhibition of LSD1 in human LNCaP cells assessed as upregulation of H3K9me2 expression at 1 to 5 uM incubated for 5 days by Western blotting analysis; assay type: cell-based; conditions: dose 1-5 µM, time 5.0 day
[16] = AUC (0 to infinity) in BALB/c mouse at 50 mg/kg,po measured upto 24 hrs by HPLC-MS/MS analysis; assay type: ADME, organism-based; conditions: in vivo
[17] = AUC (0 to infinity) in BALB/c mouse at 50 mg/kg,ip measured upto 24 hrs by HPLC-MS/MS analysis; assay type: ADME, organism-based; conditions: in vivo
[18] = test system: LNCaP; test: Growth inhibition of human LNCaP cells incubated for 6 to 7 days by MTS assay; assay type: functional; conditions: time 6-7 day
[19] = Toxicity in BALB/c mouse xenografted with human 22Rv1 cells assessed as lung morphological change at 80 mg/kg,ip administrated daily for 31 days; assay type: organism-based, CWR22R; conditions: in vivo, 744 h, time 31 day
[20] = test system: LNCaP; test: Antimigratory activity in human LNCaP cells assessed as upregulation of E-cadherin expression at 3 to 10 uM incubated for 48 hrs by Western blotting analysis; assay type: functional, cell-based; conditions: dose 3-10 µM
[21] = test system: CWR22R; test: Induction of apoptosis in human 22Rv1 cells at 5 uM incubated for 5 days by Annexin V-FITC/PI staining based flow cytometric analysis (reference value: 8.97 %); assay type: functional; conditions: time 5 day
[22] = test system: MOLM-13; test: Antiproliferative activity against human MOLM-13 cells assessed as inhibition of cell growth incubated for 6 to 7 days by MTS assay; assay type: functional, cell-based; conditions: time 6-7 day
[23] = molecular target: T1, Lysine-specific histone demethylase 1A; test: Binding affinity to recombinant human LSD1 assessed as increase in thermal stability at 5 uM at 38 to 58 degreeC incubated for 48 hrs by cellular thermal shift assay
[24] = test system: SU-DHL-2; test: Antiproliferative activity against human SU-DHL-2 cells assessed as inhibition of cell growth incubated for 6 to 7 days by MTS assay; assay type: functional, cell-based; conditions: time 6-7 day
[25] = test system: LNCaP; test: Induction of cell cycle arrest in human LNCaP cells assessed as accumulation of cells at G0/G1 phase incubated for 72 hrs by propidium iodide/RNase staining based flow cytometric analysis; assay type: functional
[26] = molecular target: T1, Lysine-specific histone demethylase 1A; test: Inhibition of recombinant human LSD1 using Histone H3 as fluorometric substrate incubated for 30 mins by HRP based plate reader assay
[27] = Cytotoxicity against human HPNE cells incubated for 6 to 7 days by MTS assay; assay type: toxicity, cell-based; conditions: time 6-7 day
[28] = test system: CWR22R; test: Antiproliferative activity against human 22Rv1 cells assessed as inhibition of cell growth incubated for 6 to 7 days by MTS assay; assay type: functional, cell-based; conditions: time 6-7 day
[29] = AUC (0 to infinity) in BALB/c mouse at 50 mg/kg,iv measured upto 24 hrs by HPLC-MS/MS analysis; assay type: ADME, organism-based; conditions: in vivo
[30] = molecular target: T1, Lysine-specific histone demethylase 1A; test: Inhibition of LSD1 in human PC-3 cells assessed as upregulation of H3K4me2 expression at 1 to 5 uM incubated for 5 days by Western blotting analysis; assay type: cell-based; conditions: dose 1-5 µM, time 5.0 day
[31] = Clearance in BALB/c mouse at 50 mg/kg,po measured upto 24 hrs by HPLC-MS/MS analysis; assay type: ADME, organism-based; conditions: in vivo
[32] = molecular target: T1, Lysine-specific histone demethylase 1A; test: Inhibition of LSD1 in human 22Rv1 cells assessed as downregulation of AR-V7 expression at 1 to 20 uM incubated for 48 hrs by Western blotting analysis; assay type: cell-based; conditions: dose 1-20 µM

half-life at 20 µM [2]: 5.5 h
GI50 [3]: 1040 nM
remaining at 1 h, 20 µM [4]: 84.3%
bioavailability [6]: 32.9%
inhibition [7]: Active
half-life [8]: 3.5 h
remaining at 2 h, 20 µM [9]: 75.8%
CL/F [11]: 8.33 mL/min/kg
inhibition [15]: Active
AUC(0-inf) [16]: 41.4 µg·h/mL
AUC(0-inf) [17]: 112 µg·h/mL
GI50 [18]: 1630 nM
Activity [23]: Active
IC50 [26]: > 3000 nM
AUC(0-inf) [29]: 126 µg·h/mL
inhibition [30]: Active
CL/F [31]: 20 mL/min/kg
inhibition [32]: Active
SMILES: CCN(c1cc(-c2ccc([C@@H]3C[C@H]3N(CC3CCOCC3)C(=O)OC(C)(C)C)cc2)cc(C(=O)NCc2c(C)cc(C)[nH]c2=O)c1C)C1CCOCC1 (racemic)
Activity [1]: Dose-Dependent Effect
Activity [5]: Non-Toxic
Activity [10]: Active
Activity [12]: Active
Activity [13]: Active
inhibition [14]: Active
Activity [19]: Non-Toxic
Activity [20]: Active
Activity [21]: 30.97%
Activity [22]: Active
Activity [24]: Active
Activity [25]: Dose-Dependent Effect
Activity [27]: Non-Toxic
Activity [28]: Active
